From patent US11980609B2, “LPA receptor antagonists and uses thereof” (Gilead Sciences, Inc., priority 2021, dated 2024) come the findings set out here.

The target of this test is T1, human LPAR1 (Homo sapiens, UniProt Q92633).
T1 construct: host or cells: CHO-K1
As to the kind of experiment: LPAR1 intracellular calcium mobilization assay (antagonist mode). The class given is cell-based. To be noted: CHO-K1 EDG2 cells expressing human LPAR1; 60 min pre-incubation with compound (0.5 nM to 10 μM), then LPA 18:2 challenge; FLIPR Tetra calcium signal. The procedure:
In vitro LPAR1 activity was measured in an intracellular calcium mobilization assay.
CHO-K1 EDG2 cells (DiscoverX cat #93-0644C2) expressing human LPAR1 (NM_001401.3) were seeded in a total volume of 25 μL of Dulbecco's Modification of Eagle's Medium (DMEM) with 10% Fetal Bovine Serum, 1× PenStrepGlutamine, 300 μg/ml Hygromycin, and 800 μg/ml G418 into 384-well tissue culture plate (Grenier #781091) at 15,000 cells/well and incubated at 37° C. overnight. Prior to testing, 25 μL Calcium Loading Dye Component A (FLIPR Calcium 6 Assay Kit Molecular Device #R8190) and 2.5 mM Probenecid (Invitrogen #P36400, prepared fresh) in Hank's Balanced Salt Solution (Corning #21-023-CV), 20 mM HEPES (Corning #25-060-CI), 0.1% Bovine Serum Albumin (Sigma-Aldrich #A7906-500G) was add to the cells for 60 minutes at 37° C.
Agonist dose curves of LPA 18:2 (Avanti Polar Lipids cat #857138, 0.5 nM to 10 μM) were recorded to determine the LPA 18:2 EC80 for subsequent antagonist assays. For agonist dose curves, cells were removed from the incubator 2 hours after dye loading and transferred to the FLIPR Tetra instrument (Molecular Devices, San Jose, CA). Calcium mobilization was monitored for 5 min and 10 μL 6×LPA in HBSS/20 mM Hepes/0.1% bovine serum albumin (BSA) was added to the cells 5 seconds into the assay.
To determine the LPAR1 antagonist activity of test compounds, cells were pre-incubated with test compound at a dose range of 0.5 nM to 10 μM, followed by LPA at […] concentration (100 nM). After dye loading, cells were removed from the incubator and 0.3 μL of 200× antagonist was added. Cells were incubated for 60 minutes at 37° C. Antagonist activity was measured on a FLIPR Tetra. Calcium mobilization was monitored for 3.5 minutes and 10 μL 6×EC80 LPA in HBSS, 20 mM HEPES, and 0.1% BSA was added to the cells 5 seconds into the assay. Signal amplitude (Maximum minus minimum) values were plotted against log10 of antagonist concentration using Dose Response Tool (Gilead Sciences Inc.) to determine EC50.
To assess the antagonistic potential of exemplified compounds EC50 values were determined for Compounds 1 to 55 in the LPAR1 calcium mobilization assay. The compound numbers correspond to the compound numbers in Examples 1 to 35. N/A=not available.
Background: Calcium assays in cells follow changes in intracellular calcium, usually with a dye or a luminescent sensor.

T1 sequence (Q92633 whole entry): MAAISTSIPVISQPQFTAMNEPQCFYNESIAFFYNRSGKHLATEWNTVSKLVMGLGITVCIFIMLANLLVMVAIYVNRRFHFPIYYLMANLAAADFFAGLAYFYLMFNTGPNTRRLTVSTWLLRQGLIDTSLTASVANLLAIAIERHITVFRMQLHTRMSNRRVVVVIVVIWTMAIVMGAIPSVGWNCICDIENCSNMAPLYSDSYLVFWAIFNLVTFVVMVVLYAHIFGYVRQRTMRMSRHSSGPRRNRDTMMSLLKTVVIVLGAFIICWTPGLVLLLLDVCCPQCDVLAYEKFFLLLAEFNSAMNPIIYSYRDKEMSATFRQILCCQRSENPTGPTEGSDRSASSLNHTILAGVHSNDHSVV

`C[C@@H](OC(=O)Nc1c(-c2ncc(NC(=O)[C@@H]3C[C@H]3C(F)(F)F)cn2)cnn1C)c1cccnc1F` [Compound 40, (R)-1-(2-fluoropyridin-3-yl)ethyl (1-methyl-4-(5-((1R,2R)-2-(trifluoromethyl)cyclopropane-1-carboxamido)pyrimidin-2-yl)-1H-pyrazol-5-yl)carbamate]: the EC50 was below 4.6 nM. The result for `C[C@@H](OC(=O)Nc1c(-c2ncc(NC(=O)C3CC(F)(F)C3)cn2)cnn1C)c1cc(F)cnc1F` [Compound 36, (R)-1-(2,5-difluoropyridin-3-yl)ethyl (4-(5-(3,3-difluorocyclobutane-1-carboxamido)pyrimidin-2-yl)-1-methyl-1H-pyrazol-5-yl)carbamate] reads 18.6 nM; that for `C[C@@H](OC(=O)Nc1c(-c2ncc(OS(C)(=O)=O)cc2F)cnn1C)c1cccnc1Cl` [Compound 12, (R)-6-(5-(((1-(2-chloropyridin-3-yl)ethoxy)carbonyl)amino)-1-methyl-1H-pyrazol-4-yl)-5-fluoropyridin-3-yl methanesulfonate], 31.1 nM; that for `C[C@@H](OC(=O)Nc1c(-c2ncc(NC(=O)C3(C#N)CC3)cc2F)cnn1C)c1cc(F)cnc1F` [Compound 17, (R)-1-(2,5-difluoropyridin-3-yl)ethyl (4-(5-(1-cyanocyclopropane-1-carboxamido)-3-fluoropyridin-2-yl)-1-methyl-1H-pyrazol-5-yl)carbamate], 19.7 nM. Take `C[C@@H](OC(=O)Nc1c(-c2ncc(NC(=O)C3(C#N)CC3)cn2)cnn1C)c1cc(F)cnc1F` [Compound 21, (R)-1-(2,5-difluoropyridin-3-yl)ethyl (4-(5-(1-cyanocyclopropane-1-carboxamido)pyrimidin-2-yl)-1-methyl-1H-pyrazol-5-yl)carbamate]: the EC50 was found to be 81.5 nM. On to `C[C@@H](OC(=O)Nc1c(-c2ncc(NC(=O)[C@@H]3C[C@H]3c3cccnc3)cn2)cnn1C)c1cc(F)cnc1F` [Compound 33, (R)-1-(2,5-difluoropyridin-3-yl)ethyl (1-methyl-4-(5-((1R,2R)-2-(pyridin-3-yl)cyclopropane-1-carboxamido)pyrimidin-2-yl)-1H-pyrazol-5-yl)carbamate], for which the EC50 turned out to be 20.3 nM.

Regarding `Cc1nc(-c2cnn(C)c2NC(=O)O[C@H](C)c2cccnc2Cl)ncc1O` [Compound 4, (R)-1-(2-chloropyridin-3-yl)ethyl (4-(5-hydroxy-4-methylpyrimidin-2-yl)-1-methyl-1H-pyrazol-5-yl)carbamate], the EC50 turned out to be 167 nM. Under `C[C@@H](OC(=O)Nc1c(-c2ncc(NC(=O)[C@@H]3C[C@H]3C#N)cn2)cnn1C)c1cc(F)cnc1F` [Compound 39, (R)-1-(2,5-difluoropyridin-3-yl)ethyl (4-(5-((1R,2R)-2-cyanocyclopropane-1-carboxamido)pyrimidin-2-yl)-1-methyl-1H-pyrazol-5-yl)carbamate] stands 66.7 nM. Turning to `C[C@@H](OC(=O)Nc1c(-c2ncc(C(=O)NC34CC(C#N)(C3)C4)cn2)cnn1C)c1cc(F)cnc1F` [Compound 46, (R)-1-(2,5-difluoropyridin-3-yl)ethyl (4-(5-((3-cyanobicyclo[1.1.1]pentan-1-yl)carbamoyl)pyrimidin-2-yl)-1-methyl-1H-pyrazol-5-yl)carbamate], the EC50 was determined as 158 nM. For the molecule `C[C@@H](OC(=O)Nc1c(-c2ncc(NC(=O)C34CC(F)(C3)C4)cn2)cnn1C)c1cc(F)cnc1F` [Compound 30, (R)-1-(2,5-difluoropyridin-3-yl)ethyl (4-(5-(3-fluorobicyclo[1.1.1]pentane-1-carboxamido)pyrimidin-2-yl)-1-methyl-1H-pyrazol-5-yl)carbamate], the 50% effective concentration (EC50) stood at 36.2 nM. Under `C[C@@H](OC(=O)Nc1c(-c2ncc(NC(=O)c3cnc(C(F)(F)F)nc3)cn2)cnn1C)c1cc(F)cnc1F` [Compound 22, (R)-1-(2,5-difluoropyridin-3-yl)ethyl (1-methyl-4-(5-(2-(trifluoromethyl)pyrimidine-5-carboxamido)pyrimidin-2-yl)-1H-pyrazol-5-yl)carbamate] stands 8.9 nM. The result for `C[C@@H](OC(=O)Nc1c(-c2ncc(OS(C)(=O)=O)cn2)cnn1C)c1cccnc1Cl` [Compound 9, (R)-2-(5-(((1-(2-chloropyridin-3-yl)ethoxy)carbonyl)amino)-1-methyl-1H-pyrazol-4-yl)pyrimidin-5-yl methanesulfonate] reads 42.9 nM.

For `C[C@@H](OC(=O)Nc1c(-c2ncc(NC(=O)C3(C(F)F)CC(F)(F)C3)cn2)cnn1C)c1cc(F)cnc1F` [Compound 37, (R)-1-(2,5-difluoropyridin-3-yl)ethyl (4-(5-(1-(difluoromethyl)-3,3-difluorocyclobutane-1-carboxamido)pyrimidin-2-yl)-1-methyl-1H-pyrazol-5-yl)carbamate], the EC50 amounted to 7.9 nM. With `Cc1nc(-c2cnn(C)c2NC(=O)O[C@H](C)c2cccc(F)c2)ccc1NS(C)(=O)=O` [Compound 13, (R)-1-(3-fluorophenyl)ethyl (1-methyl-4-(6-methyl-5-(methylsulfonamido)pyridin-2-yl)-1H-pyrazol-5-yl)carbamate], the EC50 is 1250 nM. Under `C[C@@H](OC(=O)Nc1c(-c2ncc(C(=O)NC34CC(F)(C3)C4)cn2)cnn1C)c1cc(F)cnc1F` [Compound 47, (R)-1-(2,5-difluoropyridin-3-yl)ethyl (4-(5-((3-fluorobicyclo[1.1.1]pentan-1-yl)carbamoyl)pyrimidin-2-yl)-1-methyl-1H-pyrazol-5-yl)carbamate] stands 799 nM; under `C[C@@H](OC(=O)Nc1c(-c2ccc(C(=O)NC34CC(C#N)(C3)C4)cn2)cnn1C)c1cccc(F)c1` [Compound 49], 1860 nM. Under `C[C@@H](OC(=O)Nc1c(-c2ncc(NC(=O)[C@@H]3C[C@H]3C(F)F)cn2)cnn1C)c1cc(F)cnc1F` [Compound 34, (R)-1-(2,5-difluoropyridin-3-yl)ethyl (4-(5-((1R,2R)-2-(difluoromethyl)cyclopropane-1-carboxamido)pyrimidin-2-yl)-1-methyl-1H-pyrazol-5-yl)carbamate] stands 11.6 nM; under `C[C@@H](OC(=O)Nc1c(-c2ncc(C(O)C(F)(F)F)cn2)cnn1C)c1cc(F)cnc1F` (stereo partly drawn) [Compound 53, (R)-1-(2,5-difluoropyridin-3-yl)ethyl (1-methyl-4-(5-(2,2,2-trifluoro-1-hydroxyethyl)pyrimidin-2-yl)-1H-pyrazol-5-yl)carbamate], 745 nM; under `C[C@@H](OC(=O)Nc1c(-c2ncc(NC(=O)C3(C)CC(F)(F)C3)cn2)cnn1C)c1cccnc1F` [Compound 41, (R)-1-(2-fluoropyridin-3-yl)ethyl (4-(5-(3,3-difluoro-1-methylcyclobutane-1-carboxamido)pyrimidin-2-yl)-1-methyl-1H-pyrazol-5-yl)carbamate], 20.7 nM. Under `C[C@@H](OC(=O)Nc1c(-c2ncc(NC(=O)C3(C(F)F)CC3)cn2)cnn1C)c1cc(F)cnc1F` [Compound 28, (R)-1-(2,5-difluoropyridin-3-yl)ethyl (4-(5-(1-(difluoromethyl)cyclopropane-1-carboxamido)pyrimidin-2-yl)-1-methyl-1H-pyrazol-5-yl)carbamate] stands 216 nM. On to `C[C@@H](OC(=O)Nc1c(-c2ncc(OS(C)(=O)=O)cc2F)cnn1C)c1cc(F)cnc1F` [Compound 11, (R)-6-(5-(((1-(2,5-difluoropyridin-3-yl)ethoxy)carbonyl)amino)-1-methyl-1H-pyrazol-4-yl)-5-fluoropyridin-3-yl methanesulfonate], for which the EC50 stood at 74 nM. Under `C[C@@H](OC(=O)Nc1c(-c2ncc(NC(=O)[C@@H]3C[C@H]3C(F)(F)F)cn2)cnn1C)c1cccnc1Cl` [Compound 32, (R)-1-(2-chloropyridin-3-yl)ethyl (1-methyl-4-(5-((1R,2R)-2-(trifluoromethyl)cyclopropane-1-carboxamido)pyrimidin-2-yl)-1H-pyrazol-5-yl)carbamate] stands below 4.6 nM; under `C[C@@H](OC(=O)Nc1c(-c2ncc(NC(=O)c3ccc(C(F)(F)F)nc3)cn2)cnn1C)c1cc(F)cnc1F` [Compound 27, (R)-1-(2,5-difluoropyridin-3-yl)ethyl (1-methyl-4-(5-(6-(trifluoromethyl)nicotinamido)pyrimidin-2-yl)-1H-pyrazol-5-yl)carbamate], 28 nM.

A word on the EC50: it is the midpoint of the concentration-response curve.
